# Measurements taken from patent EP1975177B1, “An appetite-suppressing peptide, its compositions and use” (Novo Nordisk A/S, priority 1996, dated 2011).
# Where a SMILES comes first, the peptide text is derived from it.
# Columns and labels:
# mice = assay: Appetite suppression in mice, consumption of 20% sucrose solution; format: in vivo; settings: intraperitoneal injection, 50 micrograms, in phosphate buffered saline
# Procedure: Mice were deprived of their normal feed for two days and given free access to a 20% sucrose solution on the first day of feed deprivation. After the 2-day feed deprivation period, mice were injected intraperitoneally with 0.5ml of a solution containing the test substance. Thirty minutes after injection, individual mice were placed in one of eight 15 cm^2 test box with a stainless steel grid floor and a glass drinking tube which projected into the box. The drinking tube was connected to a reservoir containing a 20% sucrose solution, and the interior of the drinking tube contained an electrode enabling the detection of drinking contacts with the solution by measuring the flow of a weak (unnoticeable) electric current through mice by means of an electronic apparatus connected to the drinking tube electrode and the stainless steel grid floor. Consumption of the sucrose solution was measured over a 10 minute period by electronically recording the total amount of contact with the sucrose solution during the test session. The degree of appetite suppression produced by a given test substance was determined by statistical comparison of the duration of sucrose consumption by control (vehicle treated) mice with that of mice treated with a test substance. The degree of appetite suppression in a treated group of mice was expressed as percent of the control groups response. […]
# fasted rats = settings: cited from earlier work
molecule,measurement,setting,value
"CC[C@H](C)[C@H](NC(=O)[C@H](Cc1ccccc1)NC(=O)[C@H](CC(=O)O)NC(=O)[C@H](CCCNC(=N)N)NC(=O)[C@@H](NC(=O)[C@H](C)NC(=O)[C@H](CC(C)C)NC(=O)[C@H](CC(N)=O)NC(=O)[C@H](CC(=O)O)NC(=O)[C@H](CC(C)C)NC(=O)[C@@H](NC(=O)[C@@H](NC(=O)[C@H](CC(N)=O)NC(=O)[C@H](CCSC)NC(=O)[C@H](CCC(=O)O)NC(=O)[C@H](CC(=O)O)NC(=O)[C@H](CO)NC(=O)[C@H](Cc1ccccc1)NC(=O)[C@H](CO)NC(=O)CNC(=O)[C@H](CC(=O)O)NC(=O)[C@H](C)NC(=O)[C@@H](N)Cc1c[nH]cn1)[C@@H](C)O)C(C)C)[C@@H](C)O)C(=O)N[C@@H](CC(N)=O)C(=O)N[C@@H](Cc1c[nH]c2ccccc12)C(=O)N[C@@H](CC(C)C)C(=O)N[C@@H](CC(C)C)C(=O)N[C@@H](Cc1c[nH]cn1)C(=O)N[C@H](C(=O)N[C@@H](CCCCN)C(=O)N[C@H](C(=O)N[C@H](C(=O)N[C@@H](CC(=O)O)C(=O)O)[C@@H](C)O)[C@@H](C)CC)[C@@H](C)O [synthetic porcine GLP-2, porcine GLP-2] (H-HADGSFSDEMNTVLDNLATRDFINWLLHTKITD-OH)",suppressed sucrose consumption,mice,38%
GLP-1,feeding,"fasted rats; fasted rats, intracerebroventricular (ICV) administration",inhibited feeding
same,effect on feeding behaviour,fasted rats; peripheral administration,no effect on feeding behaviour
Glucagon,effect on food intake,"fasted rats; fasted rats, intraperitoneal administration of pharmacological doses",no effect on food intake
